Among the data in US7384934B2, “Piperazine substituted aryl benzodiazepines” (Eli Lilly and Company, priority 2002, dated 2008) are Ki and melting point values, retold here.

Structures can show the parent of a compound that is named as a salt. Bounds are passed on as bounds.

For one data set, the target named is T1, Dopamine D2 receptor (Homo sapiens, UniProt P14416).
T1 construct: purchased Receptor Biology (now owned by NEN) RBHD2CM
T1 sequence (P14416 1-414 isoform P14416-2): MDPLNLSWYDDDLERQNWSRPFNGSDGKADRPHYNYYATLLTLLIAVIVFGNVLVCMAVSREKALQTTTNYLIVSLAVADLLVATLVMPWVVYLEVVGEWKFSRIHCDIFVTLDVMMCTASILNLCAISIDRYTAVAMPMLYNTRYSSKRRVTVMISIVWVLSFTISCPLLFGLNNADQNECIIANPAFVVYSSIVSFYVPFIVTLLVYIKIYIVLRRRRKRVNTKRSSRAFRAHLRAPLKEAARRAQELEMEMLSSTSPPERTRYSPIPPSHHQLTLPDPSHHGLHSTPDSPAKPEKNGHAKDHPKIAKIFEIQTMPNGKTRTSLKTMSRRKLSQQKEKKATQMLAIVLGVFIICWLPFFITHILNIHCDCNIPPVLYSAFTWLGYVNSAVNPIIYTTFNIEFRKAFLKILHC
Description: Dopamine D2 receptor binding assay ([125I]iodospiperone). To be noted: relative Ki scale of Table 5; read-out: Relative D2 Receptor Binding Affinity Ki. As to the method: The assay buffers used are 50 mM Tris-HCl pH 7.4, 120 mM NaCl, 5 mM KCl, 5 mM MgCl2, 1 mM EDTA for the Dopamine D2s receptor binding assay. […] The membranes used are from Receptor Biology (now owned by NEN), Cat # RBHD2CM for the D2 receptor.
Compounds are obtained as 10 mM stocks in 100% DMSO. They are diluted to 1 mM in 100% DMSO by adding 180 μL DMSO to 20 μL of stock in 96 well plates using a multidrop. […] This is done using a TECAN robot.
The radioligand is diluted in assay buffer to provide 0.1 nM for the D2 assay. Each vial of membranes is diluted up to 92 mL in assay buffer. The final assay volume is 250 μL consisting of 210 μl of diluted membranes, 20 μL of compound or 10% DMSO for total binding, and 20 μL of diluted radioligand. The compounds are transferred from drug dilution plates into coming 96 well assay plates using a 96 well Multimek pipettor. Radioligand and membranes are added to assay plates using multidrop pipettors. Non-specific binding is determined in wells containing a final concentration of 5 μM haloperidol. The final drug concentration range in half logs is from 10 μM down to 0.1 nM.
After addition of drug, membrane, and ligand, the plates are incubated for 2 hours at room temperature. During this time 96 well Millipore filter plates (MAFBNOB50) are soaked for a least 30 minutes with 200 μL per well of 0.5% polyethyleneimine.
The 0.5% PEI is removed from filterplate wells using a TiterTek MAP aspirator and 200 μL of the incubation mixture is transferred from the incubation plate to the filterplate after mixing. This transfer is done using the 96 tip Mutimek pipettor. After transfer to the filterplate filterplates are extracted and ished twice with 220 μL per well of cold buffer on the MAP aspirator. The peel away bottoms are removed from the filterplates and 60 μL per well of microscint 20 scintillation fluid is added per well using a multidrop. […]
For `CCN1CCN(C2=Nc3ccccc3Nc3sc(C(F)(F)F)nc32)C[C@@H]1CCOC` [Example 344, (S)-10-[4-Ethyl-3-(2-methoxy-ethyl)-piperazin-1-yl]-2-trifluoromethyl-4H-3-thia-1,4,9-triaza-benzo[f]azulene], the inhibition constant (Ki) (usually the dissociation constant of the complex between target and ligand, obtained from inhibition or displacement) is less than 10 nM.

Regarding `COCC[C@H]1CN(C2=Nc3ccccc3Nc3sc(C(C)C)nc32)CCN1C1CC1` [Example 339, (S)-10-[4-Cyclopropyl-3-(2-methoxyethyl)piperazin-1-yl]-2-isopropyl-4H-3-thia-1,4,9-triazabenzo[f]azulene dihydrochloride], the inhibition constant Ki fell in the range of 10 to 100 nM. Same read-out and setting: then `CC(C)c1nc2c(s1)Nc1ccccc1N=C2N1CCN(C)[C@@H](CCO)C1` [Example 326, (S)-2-[4-(2-Isopropyl-4H-3-thia-1,49-triazabenzo[f]azulene-10-yl)-1-methylpiperazin-2-yl]ethanol], with less than 10 nM. As for `COCC[C@H]1CN(C2=Nc3ccccc3Nc3sc(C4CCCC4)nc32)CCN1C` [Example 331, (S)-10-[3-(2-Methoxyethyl)-4-methylpiperazin-1-yl]-2-cyclopentyl 4H-3-thia-1,4,9-triazabenzo[f]azulene dihydrochloride], the Ki lay in the range of 10 to 100 nM.

`COCC[C@H]1CN(C2=Nc3ccccc3Nc3sc(C(C)C)nc32)CCN1CCOC` [Example 343, (S)-10-[3,4-Bis(2-methoxyethyl)piperazin-11-yl]-2-isopropyl-4H-3-thia-1,4,9-triazabenzo[f]azulene dihydrochloride]: the Ki was 100 to 1000 nM. The same measure, in the same setting: then `CCOC(=O)c1nc2c(s1)Nc1ccccc1N=C2N1CCN(C)[C@@H](CCOC)C1` [Example 333, (S)-10-[3-(2-Methoxy-ethyl)-4-methyl-piperazin-1-yl]-4H-3-thia-1,4,9-triaza-benzo[f]azulene-2-carboxylic acid ethyl ester dihydrochloride], with 100 to 1000 nM; and `CCOCC[C@H]1CN(C2=Nc3ccccc3Nc3sc(C)nc32)CCN1` [Example 302, (S)-10-[3-(2-Ethoxyethyl)-piperazin-1-yl]-2-methyl-4H-3-thia-1,4,9-triazabenzo[f]azulene], with 10 to 100 nM; and `Cc1cc2c(s1)Nc1ccccc1N=C2N1CCN[C@@H](CC(C)(C)O)C1` [Example 369, (S)-2-Methyl-1-[4-(2-methyl-4H-3-thia-4,9-diaza-benzo[f]azulen-10-yl)piperazin-2-yl]-propan-2-ol], with 100 to 1000 nM. The same measure, in the same setting: the figure for `COCC[C@H]1CN(C2=Nc3ccccc3Nc3sc(C)nc32)CCN1C` [Example 320, (S)-10-[3-(2-Methoxyethyl)-4-methylpiperazin-1-yl]-2-methyl-4H-3-thia-1,4,9-triazabenzo[f]azulene dihydrochloride] is 10 to 100 nM. Same read-out and setting: then `CCOCC[C@H]1CN(C2=Nc3ccccc3Nc3sc(C(C)C)nc32)CCN1C` [Example 328, (S)-10-[3-(2-Ethoxyethyl)-4-methylpiperazin-1-yl]-2-isopropyl-4H-3-thia-1,4,9-triazabenzo[f]azulene dihydrochloride], with 10 to 100 nM. As to `COC(C)C[C@H]1CN(C2=Nc3ccccc3Nc3sc(C(C)C)nc32)CCN1` (mixture of isomers) [Example 361, 10-[3(S)-(2(S)-Methoxy-propyl)-piperazin-1-yl]-2-isopropyl-4H-3-thia-1,4,9-triazabenzo[f]azulene and 10-[3(S)-(2(R)-Methoxy-propyl)-piperazin-1-yl]-2-isopropyl-4H-3-thia-1,4,9-triazabenzo[f]azulene], the inhibition constant (Ki) is less than 10 nM. Still for that read-out and setting: the figure for `Cc1nc2c(s1)Nc1ccccc1N=C2N1CCN(C)[C@@H](CCO)C1` [Example 319, (S)-2-[1-Methyl-4-(2-methyl-4H-3-thia-1,4,9-triazabenzo[f]azulene-10-yl)piperazin-2-yl]ethanol dihydrochloride] is 10 to 100 nM; for `COCC[C@H]1CN(C2=Nc3ccccc3Nc3sc(C(F)F)nc32)CCN1C` [Example 336, (S)-10-[3-(2-Methoxy-ethyl)-4-methyl-piperazin-1-yl]-2-difluoromethyl 4H-3-thia-1,4,9-triaza-benzo[f]azulene] it is less than 10 nM.

As to `COCC[C@H]1CN(C2=Nc3ccccc3Nc3sc(CCC(F)(F)F)nc32)CCN1` [Example 318, (S)-10-[3-(2-Methoxy-ethyl)-piperazin-1-yl]-2-(3,3,3-trifluoro-propyl)-4H-3-thia-1,4,9-triaza-benzo[f]azulene dihydrochloride], the inhibition constant (Ki) is less than 10 nM. In the case of `CCOCC[C@H]1CN(C2=Nc3ccccc3Nc3sc(C)nc32)CCN1C` [Example 321, (S)-10-[3-(2-Ethoxyethyl)-4-methyl-piperazin-1-yl]-2-methyl-4H-3-thia-1,4,9-triazabenzo[f]azulene dihydrochloride], the Ki lay in the range of 100 to 1000 nM.

Take `CCCCc1nc2c(s1)Nc1ccccc1N=C2N1CCN(C)[C@@H](CCOC)C1` [Example 324, (S)-10-[3-(2-Methoxy-ethyl)-4-methyl-piperazin-1-yl]-2-butyl 4H-3-thia-1,4,9-triaza-benzo[f]azulene]: the Ki was in the range of 10 to 100 nM.

As for `COCC[C@H]1CN(C2=Nc3ccccc3Nc3sc(C)cc32)CCN1C` [Example 267, (s)-10-[3-(2-Methoxyethyl)-4-methylpiperazin-1-yl]-2-methyl-4H-3-thia-4,9-diazabenzo[f]azulene dihydrochloride], the inhibition constant Ki fell in the range of 10 to 100 nM.

System in the next data set: not given
Test: not given
Settings: not given
With `CCOCC[C@H]1CN(C2=Nc3ccc(F)cc3Nc3sc(C)cc32)CCN1C.Cl`, the melting point (commonly the temperature of the solid-liquid transition) lay in the range of 180 to 182 °C. Still for that read-out and setting: then `COCC[C@H]1CN(C2=Nc3ccccc3Nc3ccc(C(C)C)cc32)CCN1C` (as salt: hydrochloride), with 210 °C; and `COCC[C@H]1CN(C2=Nc3cc(Cl)ccc3Nc3sc(C)cc32)CCN1` [Example 258, (S)-7-Chloro-10-[3-(2-methoxy-ethyl)-piperazin-1-yl]-2-methyl-4H-3-thia-4,9-diazabenzo[f]azulene], with 179 to 183 °C (dec.); and `Cc1cc2c(s1)Nc1ccccc1N=C2N1CCN(C)C(COc2ccccc2)C1` (stereo in doubt) [Example 271, (R)-10-(4-Methyl-3-phenoxymethyl-piperazin-1-yl)-2-methyl 4H-3-thia-4,9-diaza-benzo[f]azulene], with 74 to 88 °C. `COCC[C@H]1CN(C2=Nc3cc(F)ccc3Nc3sc(C)cc32)CCN1C.Cl`: the melting point lay within 192 to 194 °C. On the same count and under the same terms, the figure for `COC[C@H]1CN(C2=Nc3ccccc3Nc3sc(C)cc32)CCN1C` [Example 260, (R)-10-(3-Methoxymethyl-4-methyl-piperazin-1-yl)-2-methyl-4H-3-thia-4,9-diaza-benzo[f]azulene] is 76 to 80 °C; for `COCC[C@H]1CN(C2=Nc3ccc(F)cc3Nc3sc(C)cc32)CCN1C` (as salt: hydrochloride) [Example 279a, (S)-6-Fluoro 10-[3-(2-methoxy-ethyl)-4-methyl-piperazin-1-yl]-2-methyl-4H-3-thia-4,9-diaza-benzo[f]azulene dihydrochloride] it is 190 to 192 °C; for `CCOCC[C@H]1CN(C2=Nc3cc(F)ccc3Nc3sc(C)cc32)CCN1C.Cl.Cl` it is 193 to 195 °C. The compound `Cc1cc2c(s1)Nc1ccccc1N=C2N1CCN[C@@H](COc2ccccc2)C1` [Example 244, (R)-10-(3-Phenoxymethyl-piperazin-1-yl)-2-methyl-4H-3-thia-4,9-diaza-benzo[f]azulene] had a melting point of 64 to 81 °C.

For the compound `COCC[C@H]1CN(C2=Nc3ccccc3Nc3ccc(C(C)C)cc32)CCN1` [Example 200, (S)-2-Isopropyl-11-[3-(2-methoxy-ethyl)-piperazin-1-yl]-5H-dibenzo[b,e][1,4]diazepine], the melting point is 158 to 160 °C. Same read-out and setting: then `COCC[C@H]1CN(C2=Nc3ccccc3Nc3ccc(C(F)(F)F)cc32)CCN1` [Example 202, (S)-2-Trifluoromethyl-11-[3-(2-methoxy-ethyl)-piperazin-1-yl]-5H-dibenzo[b,e][1,4]diazepine], with 71 to 82 °C.

Take `COCC[C@H]1CN(C2=Nc3cc(Cl)ccc3Nc3sc(C)cc32)CCN1C` (as salt: hydrochloride) [Example 292, (S)-7-Chloro-10-[3-(2-methoxy-ethyl)-4-methyl-piperazin-1-yl]-2-methyl-4H-3-thia-4,9-diaza-benzo[f]azulene dihydrochloride]: the melting point was in the range of 200 to 202 °C.

The compound `COCC[C@H]1CN(C2=Nc3ccc(Cl)cc3Nc3sc(C)cc32)CCN1C` (as salt: hydrochloride) [Example 291, (S)-6-Chloro-10-[3-(2-methoxy-ethyl)-4-methyl-piperazin-1-yl]-2-methyl-4H-3-thia-4,9-diaza-benzo[f]azulene dihydrochloride] returned a melting point of 174 to 176 °C.
